Reference: US20100143500A1, “Methods and Compositions for Inhibiting GSK-3 In Glial Cell Related Disorders” (THE OHIO STATE UNIVERSITY RESEARCH FOUNDATION, priority 2006, published 2010)

What was measured:
[1] = tested on: three additional glioma cell lines and two human glioblastoma biopsies (X12 and X14)
Description: Spheroids from 6 glioma cell lines were grown in the presence of LiCl (10 mM or 20 mM).
Cell lines and chemicals. The U87 and U87ΔEGFR cell lines were provided by Dr. Webster Cavenee (Ludwig Institute for Cancer Research, La Jolla, Calif.). The human glioblastoma biopsies, X12 and X14 (from Dr. C. David James, Mayo Clinic, Rochester, Minn.), were maintained as flank tumors in nude mice as described (5). All cells were grown in DMEM with 10% FBS and 1% penicillin-streptomycin.

[2] = tested on: U87 glioma cell spheroids; experiment: U87 glioma spheroid invasion in collagen I matrix
Description: U87 control spheroid after 96 hours expansion in type I collagen with 20 mM NaCl.
Time course of U87 spheroid invasion, in the presence of increasing concentrations of LiCl. Measurements were taken daily over a period of four days.
Time course of spheroid expansion with 20 mM LiCl washed out from U87 spheres at 24 hour intervals. Subsequent expansion was monitored microscopically.
To investigate the role of GSK-3 in glioma invasion, experiments were carried out to examine the effects of lithium chloride (LiCl), a known inhibitor of GSK-3, on the invasion of U87 glioma cell spheroids embedded in a collagen I matrix.

[3] = tested on: glioma cells; experiment: propidium iodide exclusion and metabolic cell viability assays; format: cell-based; conditions: under conditions that block cell motility
[4] = molecular target: T1, inositol monophosphatase (IMP) (Homo sapiens, UniProt P29218); conditions: cited from earlier work
T1 sequence (P29218 1-277): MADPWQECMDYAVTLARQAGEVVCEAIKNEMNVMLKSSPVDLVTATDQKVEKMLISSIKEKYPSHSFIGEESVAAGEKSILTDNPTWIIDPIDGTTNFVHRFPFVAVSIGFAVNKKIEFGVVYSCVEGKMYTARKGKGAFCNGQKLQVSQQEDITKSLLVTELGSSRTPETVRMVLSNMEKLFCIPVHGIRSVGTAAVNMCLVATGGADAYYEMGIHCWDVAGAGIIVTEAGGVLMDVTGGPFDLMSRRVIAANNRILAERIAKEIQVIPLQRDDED

Which results are given for `COc1ccc(CNC(=O)Nc2ncc([N+](=O)[O-])s2)cc1` [AR-A014418]?
spheroid expansion as a percentage of control spheres ([1]; X12 cells, 96 hours): dose dependent decrease in spheroid expansion; spheroid invasion in further glioma cell lines and biopsies ([1]; panel of glioma cell lines, X12 and X14): observed in the full panel of cell lines; spheroid expansion as a percentage of control spheres ([2]; U87 cells, 96 hours): dose dependent decrease in spheroid expansion; invasion of glioma spheroids ([2]; U87 spheroids embedded in collagen I matrix): dose-dependent blockade of invasion; reversibility of the invasion blockade ([2]; after removal of inhibitor, assay up to 96 hours): reversible; cytotoxicity [3]: Minimal cytotoxicity

Which “potency as IMP inhibitor relative to lithium” value [4] does the source give for `CC(Oc1ccc(O)cc1)(P(=O)(O)O)P(=O)(O)O` [L-690, 330] here?
Its value is 1000 fold.

And the effect on invasion ([2]; concentrations as high as 400 μM)?
The effect on invasion was “no effect on invasion”.

For `O=C1NC(=O)C(c2ccccc2[N+](=O)[O-])=C1Nc1ccc(O)c(Cl)c1` [SB415286], which cytotoxicity [3] is on record?
Its cytotoxicity is “Minimal cytotoxicity”.
